Laboratory results reported in the supplement of paper PMC10307832.

What was measured:
Test in all cases: relative viability (nuclei count vs DMSO), 5 days (fraction); higher = more cells survive
[1] = compound: CC1=C(CC(=O)O)c2cc(F)ccc2/C1=C\c1ccc([S+](C)[O-])cc1 [Sulindac] + Nc1ncn([C@H]2C[C@H](O)[C@@H](CO)O2)c(=O)n1 [Decitabine] (partner 2 µM)
Summary of the method: (§1)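 Medians of duplicate plates are given as relative viability. That measure is the nuclei count in treated wells divided by the count in vehicle wells. Counts were taken on 4× images of lung cancer cell lines in 1536-well plates, 5 days after pin-tool dosing the day after seeding with one drug alone or a fixed anchor-drug dose plus five library-drug doses (not always all listed) in √10 steps.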

[2] = compound: CN[C@@H]1C[C@H]2O[C@@](C)([C@@H]1OC)n1c3ccccc3c3c4c(c5c6ccccc6n2c5c31)C(=O)NC4 [Staurosporine] + O=C(c1cc(Cc2n[nH]c(=O)c3ccccc23)ccc1F)N1CCN(C(=O)C2CC2)CC1 [Olaparib] (partner 8 µM)
Summary of the method: as §1

[3] = compound: O=c1[nH]cc(F)c(=O)[nH]1 [5-Fluorouracil] + C[C@@H](Oc1cc(-c2cnn(C3CCNCC3)c2)cnc1N)c1c(Cl)ccc(F)c1Cl [Crizotinib] (partner 1 µM)
Summary of the method: as §1

[4] = compound: O=c1[nH]cc(F)c(=O)[nH]1 [5-Fluorouracil] + C[C@]1(O)C[C@@H](c2nc(-c3ccc4ccc(-c5ccccc5)nc4c3)c3c(N)nccn32)C1 [Linsitinib] (partner 1 µM)
Summary of the method: as §1

Cell Line	relative viability ([1]; first compound 0.08 µM)	relative viability ([1]; first compound 0.253 µM)	relative viability ([1]; first compound 0.8 µM)	relative viability ([1]; first compound 2.53 µM)	relative viability ([1]; first compound 8 µM)	relative viability ([2]; first compound 0.005 µM)	relative viability ([2]; first compound 0.05 µM)	relative viability ([2]; first compound 0.1581 µM)	relative viability ([2]; first compound 0.5 µM)	relative viability ([3]; first compound 0.02 µM)	relative viability ([3]; first compound 0.2 µM)	relative viability ([3]; first compound 0.6325 µM)	relative viability ([3]; first compound 2 µM)	relative viability ([4]; first compound 0.02 µM)	relative viability ([4]; first compound 0.2 µM)	relative viability ([4]; first compound 0.6325 µM)	relative viability ([4]; first compound 2 µM)	relative viability ([2]; first compound 0.01581 µM)
201T	0.879	0.874	0.818	0.848	0.928	0.834	0.749	0.581	0.537	1.02	0.948	0.384	0.287	0.991	0.955	0.452	0.342	
A549	0.262	0.247		0.29	0.232	0.0788	0.126	0.034	0.0268	0.783	0.517	0.295	0.107	0.633	0.652	0.301	0.119	0.0424
A-427	0.469	0.521	0.552	0.52	0.6	0.694	0.284	0.189	0.139	0.799	0.965	0.77	0.378	1.05	1.08	1.11	0.546	0.482
ABC-1	1.04	1.09	1.02	0.821	1.16	0.429	0.564	0.211	0.213	1.17	1.05	0.967	0.871	0.739	0.987	0.714	0.748	0.289
BEN	0.745	0.845	0.697	0.685	0.814	0.976	0.641	0.514	0.362	1.02	0.719	0.615	0.718	0.813	0.754	0.641	0.646	0.799
CAL-12T						0.441	0.252	0.148	0.163	0.802	0.592	0.444	0.312	0.487	0.87	0.673	0.412	0.253
COR-L23	0.436	0.446	0.425	0.421	0.526	0.216	0.164	0.141	0.0662	0.789	0.556	0.478	0.148	0.846	0.945	0.43	0.234	0.189
COR-L 105	0.648	0.698	0.621	0.538	0.769	0.562	0.326	0.386	0.26	0.852	0.806	0.647	0.453	0.976	0.862	0.937	0.575	0.401
Calu-6						0.483	0.201	0.106	0.092	0.872	0.859	0.693	0.427	0.975	1.01	0.82	0.61	0.294
ChaGo-K-1	0.601	0.484	0.466	0.515	0.523	0.43	0.342	0.232	0.243	1.15	1.06	0.821	0.711					
EBC-1						0.485	0.165	0.159	0.149	0.177	0.214	0.206	0.202	0.859	0.928	0.814	0.605	0.184
EKVX	0.312	0.316	0.305	0.341	0.352	0.562	0.272	0.216	0.13	0.842		0.181		0.891	0.282	0.153	0.142	0.392
EMC-BAC-2	0.994	1	0.888	0.934	1.08	0.245	0.172	0.177	0.19	0.871	0.788	0.764	0.767	0.865	0.873	0.846	0.8	0.162
EPLC-272H	0.313		0.301	0.369	0.428	0.41	0.139	0.0846	0.0704	0.841	0.614	0.346	0.228	1.1	0.9		0.305	0.148
H3255	0.577	0.662	0.503	0.566	0.615	0.447	0.28	0.24	0.155	0.835	0.846	0.831	0.561	0.99	1.07	0.853	0.579	0.315
HARA	0.704	0.492	0.398	0.46	0.521	0.682	0.156	0.126	0.131	1.4	1.04	1.06	1.08	0.963	1.02	0.885	0.891	0.363
HCC-15	0.708	0.625	0.548	0.543	0.661	0.613	0.532	0.286	0.205	0.867	0.782	0.499	0.269	0.894	0.827	0.584	0.308	
HCC-44	0.976	0.909	0.871	0.918	0.961	1.04	0.75	0.456	0.351	0.848	0.768	0.578	0.324	0.613	0.57	0.451	0.272	
HCC-78	0.652	0.672	0.597	0.653	0.648	0.98	0.654	0.455	0.417	0.331	0.311	0.254		0.398	0.528	0.258		0.638
